Data from patent US12264173B2 (GILEAD SCIENCES, INC., priority 2020, dated 2025).
Read-outs that look alike come from different tables or passages of the source.

Experiments:
Format in all cases: cell-based
DENV2 replicon = test: DENV-2 Huh-7 Rep EC50 (replicon luminescence)
Procedure, shortened: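 EC50 derived from luminescence dose-response, normalised to DMSO-only 0% inhibition wells, after 1.5 h with EnduRen substrate. Compounds were first exposed for 48 h at 37° C to DENV2 replicon Huh-7 cells (5,000/well).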

RSV A2 = test: RSV NHBE EC50 (RSV A2 antiviral assay in NHBE cells); settings: Table 3, NHBE cells, RSV A2, 4 days, read-out: RSV NHBE EC50
Procedure, shortened: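 Step 1: seed NHBE cells (7,500/well, BEGM) overnight. Step 2: add 3-fold diluted compound, DMSO 0.05%. Step 3: infect with RSV A2, 1×10^4.5 TCID/mL; incubate 4 days, 37° C. Step 4: CellTiter-Glo luminescence.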

HRV16 = HRV16 HeLa EC50 (cytopathic effect in H1-HeLa cells)
Procedure, shortened: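 Read-out is luminescent cell viability (CellTiter-Glo) after 96 h of infection at 33 °C, scaled between uninfected and infected-untreated wells. Before infection with titrated virus, compounds went onto H1-HeLa cells as triplicate 3-fold dilution series.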

RSV strain A2 = test: microbe, parasite or virus in culture; settings: Table 3, HEp-2 cells, RSV A2, 4 days, read-out: RSV HEp-2 EC50
Procedure, shortened: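 Cytopathic-effect protection assay: HEp-2 cells (50,000/mL) infected with pre-titered RSV A2 onto 3-fold serial compound dilutions, incubated 4 days at 37° C. Cell viability read by CellTiter-Glo luminescence; percent inhibition derived against 0% and 100% virus-inhibition controls.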

[1] = Table 3, Huh-7 DENV2 replicon cells, 48 hours, read-out: DENV-2 REP Huh7 EC50
[2] = Table 3; H1-HeLa cells, 96 h; read-out: HRV16 HeLa EC50
[3] = Dengue virus, DENV2, Huh-7, 48 h, read-out: DENV-2 REP Huh7 EC50, Table 3, Huh-7 DENV2 replicon cells, 48 hours
[4] = human respiratory syncytial virus, NHBE, 96 h
[5] = 96 h, Table 3; H1-HeLa cells, 96 h; read-out: HRV16 HeLa EC50
[6] = human respiratory syncytial virus, HEp-2, 96 h
[7] = Dengue virus, DENV2, Huh-7, 48 h, read-out: DENV-2 REP Huh7 EC50

Row | SMILES | EC50 (DENV2 replicon; [1]) | EC50 (RSV A2) | EC50 (HRV16; [2]) | EC50 (RSV strain A2) | EC50 (DENV2 replicon; [3]) | EC50 (RSV A2; [4]) | EC50 (HRV16; [5]) | EC50 (RSV strain A2; [6]) | EC50 (DENV2 replicon; [7])
1 | CC(=O)O[C@H]1[C@H](c2ccc3c(N)ncnn23)O[C@](C#N)(COP(=O)(N[C@@H](C)C(=O)OC2CCOCC2)Oc2ccccc2)[C@H]1OC(C)=O (single isomer, unassigned) [Example 165] | > 99700 nM | 165 nM | 1910 nM | 405 nM |  |  |  |  | 
2 | CCOC(=O)[C@H](C)NP(=O)(N[C@@H](C)C(=O)OCC)OC[C@@]1(C#N)O[C@@H](c2ccc3c(N)ncnn23)[C@H](OC(=O)CC)[C@@H]1OC(=O)CC [Example 124, ((2R,3S,4R,5S)-5-(4-aminopyrrolo[2,1-f][1,2,4]triazin-7-yl)-2-cyano-3,4-dipropionatetetrahydrofuran-2-yl)methyl bis-ethyl L-alaninate phosphate] |  |  |  |  | > 50000 nM | 150 nM | 8390 nM | 2100 nM | 
3 | COC(=O)[C@H](C)NP(=O)(N[C@@H](C)C(=O)OC)OC[C@@]1(C#N)O[C@@H](c2ccc3c(N)ncnn23)[C@H](OC(=O)C(C)C)[C@@H]1OC(=O)C(C)C [Example 149, ((2R,3S,4R,5S)-5-(4-aminopyrrolo[2,1-f][1,2,4]triazin-7-yl)-2-cyano-3,4-diisobutylatetetrahydrofuran-2-yl)methyl bis-methyl L-alaninate phosphate] |  |  |  |  | > 35800 nM | 84 nM | 3190 nM | 1150 nM | 
4 | CC(C)OC(=O)[C@H](C)N[P@](=O)(OC[C@@]1(C#N)O[C@@H](c2ccc3c(N)ncnn23)[C@H](OC(=O)CC(C)(C)O)[C@@H]1OC(=O)CC(C)(C)O)Oc1ccccc1 [Example 152, (2R,3S,4S,5S)-5-(4-aminopyrrolo[2,1-f][1,2,4]triazin-7-yl)-2-cyano-2-((((S)-(((S)-1-isopropoxy-1-oxopropan-2-yl)amino)(phenoxy)phosphoryl)oxy)methyl) tetrahydrofuran-3,4-diyl bis(3-hydroxy-3-methylbutanoate)] |  |  |  |  |  | > 5000 nM | > 50000 nM | 2930 nM | > 50000 nM
5 | CC(=O)O[C@H]1[C@H](c2ccc3c(N)ncnn23)O[C@](C#N)(CO[P@](=O)(N[C@@H](C)C(=O)OCC2CCOCC2)Oc2ccccc2)[C@H]1OC(C)=O [Example 112] | 36500 nM | 40 nM | 2900 nM | 284 nM |  |  |  |  | 
6 | CC(=O)O[C@H]1[C@H](c2ccc3c(N)ncnn23)O[C@](C#N)(COP(=O)(N[C@@H](C)C(=O)OC2CCCCC2)N[C@@H](C)C(=O)OC2CCCCC2)[C@H]1OC(C)=O [Example 121, (2R,3S,4S,5S)-5-(4-Aminopyrrolo[2,1-f][1,2,4]triazin-7-yl)-2-cyano-2-((((((S)-1-(cyclohexyloxy)-1-oxopropan-2-yl)amino)(((S)-1-cyclohexyloxy-1-oxopropan-2-yl)amino)phosphoryl)oxy)methyl)tetrahydrofuran-3,4-diyl diacetate] |  |  |  |  | 44400 nM | 498 nM | 6660 nM | 5450 nM | 
7 | CC(C)[C@@H](N)C(=O)O[C@H]1[C@H](c2ccc3c(N)ncnn23)O[C@](C#N)(CO[P@@](=O)(N[C@@H](C)C(=O)OC2CCCCC2)Oc2ccccc2)[C@H]1OC(=O)[C@H](N)C(C)C [Example 153, (2R,3S,4S,5S)-5-(4-aminopyrrolo[2,1-f][1,2,4]triazin-7-yl)-2-cyano-2-((((S)-(((S)-1-(cyclohexyloxy)-1-oxopropan-2-yl)amino)(phenoxy)phosphoryl)oxy)methyl)tetrahydrofuran-3,4-diyl (2R,2′R)-bis(2-amino-3-methylbutanoate)] |  |  |  |  |  | 283 nM | 470 nM | 110 nM | 6680 nM
8 | CC(=O)O[C@H]1[C@H](c2ccc3c(N)ncnn23)O[C@](C#N)(CO[P@@](=O)(N[C@@H](C)C(=O)OC(C)C)Oc2ccccc2)[C@H]1OC(C)=O [Example 89, (2R,3S,4S,5S)-5-(4-Aminopyrrolo[2,1-f][1,2,4]triazin-7-yl)-2-cyano-2-((((S)-(((S)-1-isopropoxy-1-oxopropan-2-yl)amino)(phenoxy)phosphoryl)oxy)methyl) tetrahydrofuran-3,4-diyl diacetate] |  |  |  |  |  | 126 nM | 785 nM | 195 nM | 49700 nM
9 | CCCOC(=O)[C@H](C)NP(=O)(OC[C@@]1(C#N)O[C@@H](c2ccc3c(N)ncnn23)[C@H](OC(=O)CC)[C@@H]1OC(=O)CC)Oc1ccccc1 (single isomer, unassigned) [Example 189] | 8840 nM | 51 nM | 114 nM | 36 nM |  |  |  |  | 
10 | COCCOP(=O)(N[C@@H](C)C(=O)OC(C)C)OC[C@@]1(C#N)O[C@@H](c2ccc3c(N)ncnn23)[C@H](OC(=O)C(C)C)[C@@H]1OC(=O)C(C)C (stereo partly drawn) [Example 214, (2R,3S,4S,5S)-5-(4-aminopyrrolo[2,1-f][1,2,4]triazin-7-yl)-2-cyano-2-((((((S)-1-isopropoxy-1-oxopropan-2-yl)amino)(2-methoxyethoxy)phosphoryl)oxy)methyl) tetrahydrofuran-3,4-diyl bis(2-methylpropanoate)] |  |  |  |  | > 50000 nM | > 3890 nM | 31300 nM | > 41700 nM | 
11 | CCC(=O)O[C@H]1[C@H](c2ccc3c(N)ncnn23)O[C@](C#N)(CO[P@](=O)(N[C@@H](C)C(=O)OC2CCC2)Oc2ccccc2)[C@H]1OC(=O)CC [Example 196, (2R,3S,4S,5S)-5-(4-aminopyrrolo[2,1-f][1,2,4]triazin-7-yl)-2-cyano-2-((((R)-(((S)-1-cyclobutoxy-1-oxopropan-2-yl)amino)(phenoxy)phosphoryl)oxy)methyl) tetrahydrofuran-3,4-diyl dipropionate] | 1960 nM | 27 nM | 96 nM | 42 nM |  |  |  |  | 
12 | CCC(=O)O[C@H]1[C@H](c2ccc3c(N)ncnn23)O[C@](C#N)(COP(=O)(N[C@@H](C)C(=O)OC[C@H]2CC[C@H](N)CC2)Oc2ccccc2)[C@H]1OC(=O)CC (stereo partly drawn) [Example 159, (2R,3S,4S,5S)-2-((((((S)-1-(((1r,4S)-4-aminocyclohexyl)methoxy)-1-oxopropan-2-yl)amino)(phenoxy)phosphoryl)oxy)methyl)-5-(4-aminopyrrolo[2,1-f][1,2,4]triazin-7-yl)-2-cyanotetrahydrofuran-3,4-diyl dipropionate] |  |  |  |  |  | 1550 nM | 33100 nM | 7990 nM | > 50000 nM
13 | COC(=O)[C@H](C)N[P@](=O)(OC[C@@]1(C#N)O[C@@H](c2ccc3c(N)ncnn23)[C@H](OC(C)=O)[C@@H]1OC(C)=O)Oc1ccccc1 (single isomer, unassigned) [Example 131] |  |  |  |  |  | 47 nM | 782 nM | 103 nM | 19200 nM
14 | CC(C)C(=O)O[C@H]1[C@H](c2ccc3c(N)ncnn23)O[C@](C#N)(COP(=O)(N[C@@H](C)C(=O)OC[C@H]2CC[C@H](C(F)(F)F)CC2)Oc2ccccc2)[C@H]1OC(=O)C(C)C (stereo partly shown) [Example 87] |  |  |  |  |  | 23 nM | 220 nM | 119 nM | 12300 nM
15 | CCC(=O)Nc1ncnn2c([C@@H]3O[C@](C#N)(COP(=O)(N[C@@H](C)C(=O)OC4CCOCC4)Oc4ccccc4)[C@@H](OC(=O)CC)[C@H]3OC(=O)CC)ccc12 (stereo partly drawn) [Example 170, (2R,3S,4S,5S)-2-Cyano-2-((((((S)-1-oxo-1-((tetrahydro-2H-pyran-4-yl)oxy)propan-2-yl)amino)(phenoxy)phosphoryl)oxy)methyl)-5-(4-propionamidopyrrolo[2,1-f][1,2,4]triazin-7-yl)tetrahydrofuran-3,4-diyl dipropionate] |  |  |  |  |  | 80 nM | 863 nM | 267 nM | 15900 nM
16 | CCC(=O)OC1C(c2ccc3c(N)ncnn23)OC(C#N)(COP(=O)(NC(C)C(=O)OCC2CCC2)Oc2ccccc2)C1OC(=O)CC (stereo not shown) [Example 92] | 13600 nM | 33 nM | 104 nM | 41 nM |  |  |  |  | 
17 | CC(C)C(=O)O[C@H]1[C@H](c2ccc3c(N)ncnn23)O[C@](C#N)(COP(=O)(N[C@@H](C)C(=O)OCC2CCOCC2)Oc2ccccc2)[C@H]1OC(=O)C(C)C (single isomer, unassigned) [Example 182] | 3500 nM | 17 nM | 177 nM | 88 nM |  |  |  |  | 
18 | CC(C)C(=O)OC1C(c2ccc3c(N)ncnn23)OC(C#N)(COP(=O)(NC(C)C(=O)OCC2CCC(N)CC2)Oc2ccccc2)C1OC(=O)C(C)C (single isomer, unassigned) [Example 209] | 31400 nM | 168 nM | 8520 nM | 1570 nM |  |  |  |  | 
19 | CCC(=O)O[C@H]1[C@H](c2ccc3c(N)ncnn23)O[C@](C#N)(CO[P@](=O)(N[C@@H](C)C(=O)OC)Oc2ccccc2)[C@H]1OC(=O)CC (single isomer, unassigned) [Example 142] |  |  |  |  |  | 16 nM | 352 nM | 93 nM | 11100 nM
